Measured values from patent US8501784B2, “2-pyridone derivatives as neutrophil elastase inhibitors and their use” (Astrazeneca AB, priority 2003, dated 2013).

Target: T1, Human Neutrophil Elastase (Homo sapiens, UniProt P08246)
T1 construct: Human Neutrophil Elastase (FINE) purified from serum (Calbiochem art. 324681); purchased Calbiochem 324681; host or cells: natural enzyme, purified from serum
T1 sequence (P08246 30-267): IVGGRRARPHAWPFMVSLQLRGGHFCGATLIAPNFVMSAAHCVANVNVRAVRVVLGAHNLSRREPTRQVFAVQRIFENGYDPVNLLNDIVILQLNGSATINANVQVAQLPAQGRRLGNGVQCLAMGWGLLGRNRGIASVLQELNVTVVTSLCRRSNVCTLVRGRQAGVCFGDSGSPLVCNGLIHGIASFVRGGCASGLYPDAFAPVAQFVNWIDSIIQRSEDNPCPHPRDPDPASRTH
Assay: Human Neutrophil Elastase Quenched-FRET Assay
Format: biochemical
Details: HNE purified from serum; substrate MeOSuc-AAPV-AMC; 15 min preincubation, 30 min incubation at room temperature; read-out: Inhibition of Human Neutrophil Elastase IC50
Procedure: Human Neutrophil Elastase Quenched-FRET Assay
HNE was stored in 50 mM NaOAc, 200 mM NaCl, pH 5.5 with added 30% glycerol at −20° C. […] The substrate was stored in DMSO at −20° C. […] The assay buffer constitution was: 100 mM Tris (pH 7.5) and 500 mM NaCl. The enzyme and the compounds were incubated at room temperature for 15 minutes. Then 30 μl substrate in assay buffer was added. The assay was stopped after 30 minutes incubation at room temperature by adding 60 μl stop solution (140 mM acetic acid, 200 mM sodium monochloroacetate, 60 mM sodium acetate, pH 4.3).

| IC50 [nM] | SMILES |
| --- | --- |
| 47 | Cc1c(-c2ccccc2)cc(C(=O)NCc2ccc(S(C)(=O)=O)cc2)c(=O)n1-c1cccc(C(F)(F)F)c1 [Example 1, 6-Methyl-N-[4-(methylsulfonyl)benzyl]-2-oxo-5-phenyl-1-[3-(trifluoromethyl)phenyl]-1,2-dihydropyridine-3-carboxamide] |
| 7 | Cc1nnc(-c2cc(C(=O)NCc3ccc(S(=O)(=O)C4CC4)cc3)c(=O)n(-c3cccc(C(F)(F)F)c3)c2C)o1 [Example 46, N-[4-(Cyclopropylsulfonyl)benzyl]-6-methyl-5-(5-methyl-1,3,4-oxadiazol-2-yl)-2-oxo-1-[3-(trifluoromethyl)phenyl]-1,2-dihydropyridine-3-carboxamide] |
| 48 | COc1ncc(-c2cc(C(=O)NCc3ccc(S(C)(=O)=O)cc3)c(=O)n(-c3cccc(C(F)(F)F)c3)c2C)cn1 [Example 5, 5-(2-Methoxypyrimidin-5-yl)-6-methyl-N-[4-(methylsulfonyl)benzyl]-2-oxo-1-[3-(trifluoromethyl)phenyl]-1,2-dihydropyridine-3-carboxamide] |
| 46 | Cc1c(-c2ccoc2)cc(C(=O)NCc2ccc(S(C)(=O)=O)cc2)c(=O)n1-c1cccc(C(F)(F)F)c1 [Example 2, 5-Furan-3-yl-6-methyl-2-oxo-1-(3-trifluoromethyl-phenyl)-1,2-dihydro-pyridine-3-carboxylic acid 4-methanesulfonyl-benzylamide] |
| 12 | Cc1cc(CNC(=O)c2cc(-c3ccnn3C)c(C)n(-c3cccc(C(F)(F)F)c3)c2=O)on1 [Example 91, 6-Methyl-5-(2-methyl-2H-pyrazol-3-yl)-2-oxo-1-(3-trifluoromethyl-phenyl)-1,2-dihydro-pyridine-3-carboxylic acid (3-methyl-isoxazol-5-ylmethyl)-amide] |
| 3 | Cc1noc(C)c1-c1cc(C(=O)NCc2ccc(S(=O)(=O)C(C)C)cc2)c(=O)n(-c2cccc(C(F)(F)F)c2)c1C [Example 32, 5-(3,5-Dimethylisoxazol-4-yl)-N-[4-(isopropylsulfonyl)benzyl]-6-methyl-2-oxo-1-[3-(trifluoromethyl)phenyl]-1,2-dihydropyridine-3-carboxamide] |
